Earlier results in paper PMC4584145 (Antiviral chemistry & chemotherapy, 2011).

How the values were obtained:
N-HR of HIV-1 gp41 = conditions: ELISA; N-HR containing amino acid positions 18 to 73
[1] = test system: 5-helix complex (three N-HRs and two C-HRs)

Substance | binding to the N-HR (N-HR of HIV-1 gp41) | interaction with artificial 5-helix complex [1]
C34: representative C-HR-derived peptide that inhibits HIV-1 fusion to host cells | binds strongly | –
Enfuvirtide [T20] | binds weakly | much weaker than that between C34 and the complex
